# How the values were obtained:
# [1] = system: Human immunodeficiency virus 1; test: Tested in vitro against MT-4 human lymphoid cells infected with the type IIIb isolate; type: functional; settings: Human immunodeficiency virus 1, lymphoid; read-out: CIC95
# [2] = molecular target: Human immunodeficiency virus type 1 protease (Human immunodeficiency virus 1, UniProt Q72874); test: Tested in vitro for the ability to inhibit HIV-1 protease
# [3] = system: Human immunodeficiency virus 1; test: Ratio of CIC95 to that of IC50 was determined; type: functional
Structure (SMILES),IC95 [1],IC50 [2],Ratio [3]
CC(C)[C@@H]1[C@H](OC(=O)N[C@@H](Cc2ccccc2)[C@H](O)CN2CCN(C3CCCCCC3)C[C@H]2C(=O)NC(C)(C)C)CCS1(=O)=O,200 nM,,
CC(C)[C@@H]1[C@H](OC(=O)N[C@@H](Cc2ccccc2)[C@H](O)CN2CCN(C3CCC3)C[C@H]2C(=O)NC(C)(C)C)CCS1(=O)=O,50 nM,,
CCCCCCCCN1CCN(C[C@@H](O)[C@H](Cc2ccccc2)NC(=O)O[C@@H]2CCS(=O)(=O)[C@@H]2C(C)C)[C@H](C(=O)NC(C)(C)C)C1,200 nM,,
CC(C)[C@@H]1[C@H](OC(=O)N[C@@H](Cc2ccccc2)[C@H](O)CN2CCN(C3CCSC3)C[C@H]2C(=O)NC(C)(C)C)CCS1(=O)=O (some centres not stated),> 200 nM,8.3 nM,
CC(C)[C@@H]1[C@H](OC(=O)N[C@@H](Cc2ccccc2)[C@H](O)CN2CCN(C3CC(c4ccccc4)C3)C[C@H]2C(=O)NC(C)(C)C)CCS1(=O)=O (some centres not stated),100 nM,3.8 nM,26
CC(C)[C@@H]1[C@H](OC(=O)N[C@@H](Cc2ccccc2)[C@H](O)CN2CCN(CC(C)(C)C)C[C@H]2C(=O)NC(C)(C)C)CCS1(=O)=O,200 nM,,
CC(C)[C@@H]1[C@H](OC(=O)N[C@@H](Cc2ccccc2)[C@H](O)CN2CCN(C(C)C)C[C@H]2C(=O)NC(C)(C)C)CCS1(=O)=O,> 200 nM,,
CC(C)[C@@H]1[C@H](OC(=O)N[C@@H](Cc2ccccc2)[C@H](O)CN2CCN(C3CCOCC3)C[C@H]2C(=O)NC(C)(C)C)CCS1(=O)=O,> 200 nM,34.6 nM,
CC(C)[C@@H]1[C@H](OC(=O)N[C@@H](Cc2ccccc2)[C@H](O)CN2CCN(C3CC3)C[C@H]2C(=O)NC(C)(C)C)CCS1(=O)=O,100 nM,,
CC(C)[C@@H]1[C@H](OC(=O)N[C@@H](Cc2ccccc2)[C@H](O)CN2CCN(C3CCSCC3)C[C@H]2C(=O)NC(C)(C)C)CCS1(=O)=O,200 nM,,
CC(C)[C@@H]1[C@H](OC(=O)N[C@@H](Cc2ccccc2)[C@H](O)CN2CCN(C3CCCC3)C[C@H]2C(=O)NC(C)(C)C)CCS1(=O)=O,150 nM,,
CCCN1CCN(C[C@@H](O)[C@H](Cc2ccccc2)NC(=O)O[C@@H]2CCS(=O)(=O)[C@@H]2C(C)C)[C@H](C(=O)NC(C)(C)C)C1,100 nM,,
CC(C)[C@@H]1[C@H](OC(=O)N[C@@H](Cc2ccccc2)[C@H](O)CN2CCN(C3Cc4ccccc4C3)C[C@H]2C(=O)NC(C)(C)C)CCS1(=O)=O,100 nM,5.3 nM,19
CC(C)CN1CCN(C[C@@H](O)[C@H](Cc2ccccc2)NC(=O)O[C@@H]2CCS(=O)(=O)[C@@H]2C(C)C)[C@H](C(=O)NC(C)(C)C)C1,100 nM,,
CCC(CC)N1CCN(C[C@@H](O)[C@H](Cc2ccccc2)NC(=O)O[C@@H]2CCS(=O)(=O)[C@@H]2C(C)C)[C@H](C(=O)NC(C)(C)C)C1,> 200 nM,,
CC(C)[C@@H]1[C@H](OC(=O)N[C@@H](Cc2ccccc2)[C@H](O)CN2CCN(C3CCCCC3)C[C@H]2C(=O)NC(C)(C)C)CCS1(=O)=O,200 nM,,

# Source: ChEMBL document CHEMBL1150509, “Cycloalkylpiperazines as HIV-1 protease inhibitors: enhanced oral absorption” (Bioorg Med Chem Lett, 1995)
